13 compounds from US20110319392A1, “Thiazole Sulfonamide And Oxazole Sulfonamide Kinase Inhibitors” (priority 2009, published 2011) can be followed below.

Experiment [1] has as its target B-Raf (Homo sapiens, UniProt P15056). The experiment in a line: B-Raf Accelerated MEK ATPase assay (BRAMA), Method A or B. Type of experiment: biochemical. The settings on record: Method B: final MEK 150 nM, single end point read. The method, then: Compounds of the present invention were tested for B-Raf protein serine kinase inhibitory activity in a B-Raf Accelerated MEK ATPase assay (BRAMA). The BRAMA assay is a high sensitivity assay which measures an intrinsic MEK-mediated ATP hydrolysis uncoupled from downstream ERK phosphorylation by coupling the formation of ADP to NADH oxidation through the enzymes pyruvate kinase and lactate dehydrogenase. When ADP production is initiated by addition of catalytic amounts of an activated Raf enzyme and non-phosphorylated MEK, one observes robust ADP production concomitant with Raf-mediated phosphorylation of MEK.
Method A: Specific details of the assay are disclosed in: C. Rominger, M. Schaber, E. May. Assay for B-Raf Activity Based on Intrinsic MEK ATPase Activity. Statutory Invention Registration 11/084,993 (March, 2005). Method B: The method is the same as method A, but includes the following changes: 1) the assay was performed with a final MEK concentration of 150 nM and 2) the assay was read as single end point instead of a kinetic read.

In experiment [2] the test system is Colo205 tumor cells. The experiment in a line: Cell growth inhibition assay (CellTiter-Glo), Colo205. Type of experiment: cell-based, Human. To be noted: Homo sapiens, COLO 205, 72 h; 3 days incubation. The method, then:
(§1) Human breast tumor cells (BT474) were cultured in RPMI (Mediatech […]), containing 10% FBS (JRH Biosciences 12176) and 1% penicillin-streptomycin (Invitrogen 15140). Human head and neck tumor cells (HN5) were cultured in high glucose DMEM (Mediatech 50-013-PB) containing 10% FBS and 1% penicillin-streptomycin. Human colon tumor cells (Colo205) were cultured in RPMI (Mediatech 50-020-PB) containing 10% FBS and 1% penicillin-streptomycin. Human melanoma cancer cells (SK-MEL-28) were cultured in EMEM with nonessential amino acids (Mediatech 50-011-PB) containing 10% FBS, 1% sodium pyruvate (JT Baker 3354-04), and 1% penicillin-streptomycin. Human melanoma cancer cells (A375P F11s) were cultured in RPMI (Mediatech 50-020-PB) containing 10% FBS, 1% sodium pyruvate, and 1% penicillin-streptomycin. Human colon cancer cells (HT-29) were cultured in high glucose DMEM (Mediatech 50-013-PB) containing 10% FBS and 1% penicillin-streptomycin. Human melanoma cancer cells (SK-MEL-3) were cultured in McCoy's 5A (50-025-PB) containing 15% FBS, and 1% penicillin-streptomycin. All cell lines were maintained at 37° C. in a humidified 5% CO2, 95% air incubator. Cells were harvested using trypsin/EDTA (Invitrogen 25200), counted using a haemocytometer, and plated. For 96-well assays (using white full-area NUNC plates cat. #136102), cells were plated in 105 μL at the following densities (cells/well): HNS, 500; Colo 205, 500; SK-MEL-28, 500; A375P F11s, 500; HT-29, 500; SK-MEL-3, 500; and BT474, 3000. For 384-well assays (white full-area NUNC plates, cat. #781080), cells were plated in 48 μL at the following densities (cells/well): HNS, 500; Colo205, 500; SK-MEL-28, 500; A375P F11s, 500; HT-29, 500; SK-MEL-3, 500; and BT474, 2000.
(§2) The next day, compounds were diluted as follow: For 96-well assays, 13.5 μL of compound in DMSO were diluted using nine (9) serial 1:3 dilutions of 4.5 μL in 9 of DMSO. Medium (270 μL/well of RPMI with 10% FBS and 1% penicillin-streptomycin) was added to the plates. Aliquots (7 μL) were added to cells in the final assay giving a final DMSO concentration of 0.2%. For 384-well assays, 15 μL of compound in DMSO were diluted using nine (9) serial 1:3 dilutions of 5 μL in 10 μL of DMSO, followed by a further dilution of 5 μL of compound with 95 μL of medium, of which 2 μL were added to cells in the final assay giving a final DMSO concentration of 0.2%. Cells were incubated at 37° C., 5% CO2 for 3 days.
(§3) Total ATP was measured (as a surrogate estimate of cell number) using CellTiter-Glo® reagent (Promega G7571). Briefly, plates were removed from the incubator and allowed to equilibrate to room temperature for 30 minutes. CellTiter-Glo® (25 μL or 55 μL for 384-well or 96-well assays, respectively) reagent was added to each well and plates were shaken on an orbital plate shaker for 2 minutes. Plates were incubated without shaking for a further 30 minutes and read on an LJL Analyst GT reader in luminometer mode with an integration time of 0.5 seconds per well. Percent inhibition of cell growth was calculated relative to DMSO vehicle-treated control wells. Concentration of compound required to give 50% inhibition of vehicle-treated control cell growth (IC50) was interpolated using a 4-parameter fit for determining IC50 using the following equation: Y=A +((B−A)/(1+((C/X)̂D))) where […].
(ATP-based viability assays read luminescence as a measure of living cells.)

Experiment [3] deals with T1, ErbB2 (Homo sapiens, UniProt P04626).
T1 construct: made in house; host or cells: baculovirus expression system
T1 sequence (P04626 23-1255): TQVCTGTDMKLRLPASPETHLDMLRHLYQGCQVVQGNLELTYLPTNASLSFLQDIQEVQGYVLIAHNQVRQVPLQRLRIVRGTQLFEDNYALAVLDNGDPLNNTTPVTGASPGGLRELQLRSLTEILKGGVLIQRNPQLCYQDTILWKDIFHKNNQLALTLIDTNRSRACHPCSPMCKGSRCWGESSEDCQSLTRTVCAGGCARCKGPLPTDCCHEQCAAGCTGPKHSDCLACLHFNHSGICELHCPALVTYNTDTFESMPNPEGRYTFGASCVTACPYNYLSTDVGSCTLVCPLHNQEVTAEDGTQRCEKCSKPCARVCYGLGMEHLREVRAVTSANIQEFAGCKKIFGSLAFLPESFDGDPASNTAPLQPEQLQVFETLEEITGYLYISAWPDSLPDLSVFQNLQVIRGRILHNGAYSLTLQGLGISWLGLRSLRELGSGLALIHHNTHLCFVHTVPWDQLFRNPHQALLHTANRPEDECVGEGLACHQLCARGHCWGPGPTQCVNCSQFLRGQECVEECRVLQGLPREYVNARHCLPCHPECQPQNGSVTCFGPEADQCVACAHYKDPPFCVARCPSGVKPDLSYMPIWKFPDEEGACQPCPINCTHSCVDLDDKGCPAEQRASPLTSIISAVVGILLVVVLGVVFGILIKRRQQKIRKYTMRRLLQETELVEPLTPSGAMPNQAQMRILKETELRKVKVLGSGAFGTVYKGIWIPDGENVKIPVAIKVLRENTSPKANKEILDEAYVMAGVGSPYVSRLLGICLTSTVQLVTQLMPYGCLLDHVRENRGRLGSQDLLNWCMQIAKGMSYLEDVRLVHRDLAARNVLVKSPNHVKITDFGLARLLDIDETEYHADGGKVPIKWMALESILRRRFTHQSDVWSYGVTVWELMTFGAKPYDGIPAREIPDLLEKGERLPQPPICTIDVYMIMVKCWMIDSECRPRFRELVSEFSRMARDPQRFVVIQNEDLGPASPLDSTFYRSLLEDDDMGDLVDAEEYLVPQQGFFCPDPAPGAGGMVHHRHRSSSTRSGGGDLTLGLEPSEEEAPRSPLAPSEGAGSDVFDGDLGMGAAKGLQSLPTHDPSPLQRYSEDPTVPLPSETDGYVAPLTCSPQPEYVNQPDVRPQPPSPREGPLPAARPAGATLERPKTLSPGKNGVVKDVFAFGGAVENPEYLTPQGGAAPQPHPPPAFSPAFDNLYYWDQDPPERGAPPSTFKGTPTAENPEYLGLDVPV
The experiment in a line: ErbB-2 substrate phosphorylation assay (HTRF). Type of experiment: biochemical. The method, then: (§4) Compounds of the present invention were tested for EGFR and ErbB-2 protein tyrosine kinase inhibitory activity in substrate phosphorylation assays using enzymes purified from a baculovirus expression system. Reagent production was conducted essentially as described in Brignola, P. S., et al, (2002) J. Biol. Chem. 277(2):1576-1585.
(§5) The method measures the ability of the isolated enzyme to catalyse the transfer of the gamma-phosphate from ATP onto the tyrosine residue of a biotinylated synthetic peptide referenced “Peptide C” in Brignola, P. S., et al, (2002) J. Biol. Chem. 277(2):1576-1585. The extent of tyrosine phosphorylation was measured using an anti-phosphotyrosine antibody, and quantified by homogenous time-resolved fluorescence (HTRF).
(§6) Reactions were performed in black 384-well polystyrene flat-bottom plates in a final volume of 20 μL. Assays were performed by adding 10 μL of each of the following solutions, Substrate Mix and Enzyme Mix: The Substrate Mix contained 100 mM 3-[N-morpholino]propanesulfonic acid (MOPS) (pH 7.5), 2 mM MnCl2, 20 μM ATP, 0.01% Tween-20, 0.1 mg/mL (BSA), 0.8 uM peptide substrate, and 1 mM dithiothreitol. The Enzyme Mix contained 100 mM MOPS (pH7.5); 0.01% Tween-20; 0.1 mg/mL BSA, and either 0.8 nM EGFR, 10 nM ErbB2, or 1 nM ErbB4. The Enzyme Mix was added to the compound plates and the plates were incubated at 20° C. for 1 hr. The reactions were then started by adding the Substrate Mix.
(§7) After initiating the reaction with the method described above, the reactions were allowed to proceed for 90 minutes at 20° C. The reactions were then terminated by the addition of 20 μL 100 mM EDTA to each well. 40 μL/well of HTRF detection mix were added to the assay plates. The final concentrations of the detection reagents were: 100 mM HEPES (pH7.5), 0.1 mg/mL BSA, 15 nM streptavidin-labeled allophycocyanin (PerkinElmer), and 1 nM europium-labeled anti-phosphotyrosine antibody (Perkin Elmer). Assay plates were left unsealed and were counted in a Wallac Multilabel Counter 1420 (PerkinElmer).
(§8) Compounds under analysis were dissolved in dimethylsulfoxide (DMSO) to 1.0 mM and serially diluted 1 to 3 with DMSO through twelve dilutions. 1 μL of each concentration was transferred to the corresponding well of an assay plate. This creates a final compound concentration range from 0.00027 to 47.6 μM.
(§9) The data for dose responses were plotted as % Inhibition calculated with the data reduction formula 100*(1-(U1−C2)/(C1−C2)) versus concentration of compound where U1 is the unknown value, C1 is the average control value obtained for 4.76% DMSO, and C2 is the average control value obtained for 0.035 M EDTA. Data were fitted with a curve described by:
(§10) where Vmax is the upper asymptote, Y2 is the Y intercept, and K is the IC50. The results for each compound were recorded as pIC50s, calculated as follows: […]

Experiment [4] deals with SK-MEL-28 tumor cells. Description: Cell growth inhibition assay (CellTiter-Glo), SK-MEL-28. To be noted: Homo sapiens, SK-MEL-28, 72 h; 3 days incubation. The experiment is classed as cell-based, Human. The method, then: as §1, §2, §3
The target in experiment [5] is T2, EGFR (Homo sapiens, UniProt P00533).
T2 construct: made in house; host or cells: baculovirus expression system
T2 sequence (P00533 25-1210): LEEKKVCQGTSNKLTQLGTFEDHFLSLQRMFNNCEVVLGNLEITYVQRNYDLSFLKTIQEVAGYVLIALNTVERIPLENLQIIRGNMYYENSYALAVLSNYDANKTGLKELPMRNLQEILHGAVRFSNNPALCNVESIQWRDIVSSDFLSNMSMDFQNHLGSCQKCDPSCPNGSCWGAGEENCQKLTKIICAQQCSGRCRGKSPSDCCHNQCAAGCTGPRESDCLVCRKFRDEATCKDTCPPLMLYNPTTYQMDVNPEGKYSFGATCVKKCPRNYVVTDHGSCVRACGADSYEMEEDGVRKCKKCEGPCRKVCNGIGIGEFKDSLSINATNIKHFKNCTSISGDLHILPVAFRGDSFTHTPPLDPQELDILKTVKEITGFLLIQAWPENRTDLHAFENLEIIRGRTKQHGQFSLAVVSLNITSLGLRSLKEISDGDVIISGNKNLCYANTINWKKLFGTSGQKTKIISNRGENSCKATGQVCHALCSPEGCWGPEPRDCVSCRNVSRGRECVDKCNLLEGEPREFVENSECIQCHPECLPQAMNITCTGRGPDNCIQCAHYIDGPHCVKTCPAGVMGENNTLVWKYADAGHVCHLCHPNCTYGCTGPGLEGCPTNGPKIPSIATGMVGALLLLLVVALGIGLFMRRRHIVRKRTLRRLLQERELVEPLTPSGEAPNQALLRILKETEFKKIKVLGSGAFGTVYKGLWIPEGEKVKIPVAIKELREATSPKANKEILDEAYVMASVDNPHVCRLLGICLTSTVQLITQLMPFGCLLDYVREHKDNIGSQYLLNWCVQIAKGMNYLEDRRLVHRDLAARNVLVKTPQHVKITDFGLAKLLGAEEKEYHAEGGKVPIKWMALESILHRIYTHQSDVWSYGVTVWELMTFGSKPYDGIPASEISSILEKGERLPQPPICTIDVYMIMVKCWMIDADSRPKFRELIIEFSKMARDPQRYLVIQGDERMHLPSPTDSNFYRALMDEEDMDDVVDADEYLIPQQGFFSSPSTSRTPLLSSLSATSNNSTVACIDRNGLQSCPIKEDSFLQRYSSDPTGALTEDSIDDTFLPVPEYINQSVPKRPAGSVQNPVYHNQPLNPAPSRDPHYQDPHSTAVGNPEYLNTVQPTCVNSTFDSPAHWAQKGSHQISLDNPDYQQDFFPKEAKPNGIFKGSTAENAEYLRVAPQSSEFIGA
The experiment in a line: EGFR substrate phosphorylation assay (HTRF). The experiment is classed as biochemical. The method, then:
as §4, §5, §6, §7, §8, §9, §10
In general terms: Time-resolved FRET reads energy transfer from a long-lived donor to a nearby acceptor.

Some results are limits rather than exact numbers.

Chain of B-Raf (P15056 whole entry): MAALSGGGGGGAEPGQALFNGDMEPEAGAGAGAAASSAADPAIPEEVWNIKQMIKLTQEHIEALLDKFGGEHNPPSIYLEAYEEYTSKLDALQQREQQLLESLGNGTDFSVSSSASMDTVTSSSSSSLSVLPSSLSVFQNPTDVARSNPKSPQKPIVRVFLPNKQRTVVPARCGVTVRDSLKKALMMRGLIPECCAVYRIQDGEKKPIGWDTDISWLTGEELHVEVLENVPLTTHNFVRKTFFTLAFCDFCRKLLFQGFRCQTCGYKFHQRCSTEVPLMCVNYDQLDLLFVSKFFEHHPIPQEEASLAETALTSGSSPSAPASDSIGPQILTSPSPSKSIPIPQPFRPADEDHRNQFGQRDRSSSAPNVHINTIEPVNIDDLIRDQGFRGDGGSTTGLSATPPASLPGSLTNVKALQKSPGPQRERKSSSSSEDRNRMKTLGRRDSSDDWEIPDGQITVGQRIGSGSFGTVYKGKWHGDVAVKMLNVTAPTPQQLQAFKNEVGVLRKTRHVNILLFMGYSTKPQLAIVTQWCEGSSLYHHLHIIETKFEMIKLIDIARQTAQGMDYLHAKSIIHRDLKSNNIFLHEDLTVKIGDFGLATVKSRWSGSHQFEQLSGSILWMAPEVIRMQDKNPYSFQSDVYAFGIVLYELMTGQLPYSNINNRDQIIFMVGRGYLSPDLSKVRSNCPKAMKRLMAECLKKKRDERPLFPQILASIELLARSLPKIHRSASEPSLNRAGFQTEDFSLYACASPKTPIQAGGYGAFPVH

For orientation: IC50 means the concentration that gives 50% inhibition. A lower IC50 goes with inhibition by little substance. For the compound `Cc1cc(CS(C)(=O)=O)ccc1Nc1nccc(-c2sc(C(C)C)nc2-c2ccc(F)c(NS(=O)(=O)c3c(F)cccc3F)c2)n1` [Example 138], the IC50 was less than 100 nM in experiment [1]; 100 to 1000 nM in experiment [2]; greater than 1000 nM in experiment [3]; less than 100 nM in experiment [4]; greater than 1000 nM in experiment [5].
Take `COC(=O)c1ccc(S(=O)(=O)Nc2cccc(-c3nc(C(C)C)sc3-c3ccnc(Nc4ccc(N5CCOCC5)nc4)n3)c2)o1` [Example 110]: the IC50 in experiment [1] was less than 100 nM; in experiment [2], 100 to 1000 nM; in experiment [3] it was greater than 1000 nM; in experiment [4], greater than 1000 nM; in experiment [5], greater than 1000 nM.
Take `CC(C)c1nc(-c2ccc(F)c(NS(=O)(=O)c3c(F)cccc3F)c2)c(-c2ccnc(Nc3ccncn3)n2)s1` [Example 148]: the IC50 in experiment [1] is 100 to 1000 nM; in experiment [2] it was 100 to 1000 nM; in experiment [3] it was greater than 1000 nM; in experiment [4], 100 to 1000 nM; in experiment [5], greater than 1000 nM.
In the case of `COc1ccc(S(C)(=O)=O)cc1Nc1nccc(-c2sc(N3CCOCC3)nc2-c2cccc(NS(=O)(=O)c3c(F)cccc3F)c2Cl)n1` [Example 164], the IC50 is less than 100 nM in experiment [1]; less than 100 nM in experiment [2]; greater than 1000 nM in experiment [3]; less than 100 nM in experiment [4]; greater than 1000 nM in experiment [5].
Take `CC(C)(F)c1nc(-c2ccc(F)c(NS(=O)(=O)c3c(F)cccc3F)c2)c(-c2ccnc(Nc3ccc(N4CCOCC4)nc3)n2)s1` [Example 103]: the IC50 in experiment [1] is 100 to 1000 nM; in experiment [2], 100 to 1000 nM; in experiment [3], greater than 1000 nM; in experiment [4], 100 to 1000 nM; in experiment [5], greater than 1000 nM.
Consider `CCc1nc(-c2ccc(F)c(NS(=O)(=O)c3ccccc3)c2)c(-c2ccnc(Nc3ccc(N4CCN(C(C)C)CC4)cc3OC)n2)s1` [Example 69], for which the IC50 was 100 to 1000 nM in experiment [1]; greater than 1000 nM in experiment [2]; 100 to 1000 nM in experiment [3]; greater than 1000 nM in experiment [4]; 100 to 1000 nM in experiment [5].
Take `COc1cc(N2CCN(CCS(C)(=O)=O)CC2)c(C)cc1Nc1nccc(-c2scnc2-c2cccc(NS(=O)(=O)c3c(F)cccc3F)c2)n1` [Example 163]: the IC50 in experiment [1] was 100 to 1000 nM; in experiment [2] it was 100 to 1000 nM; in experiment [3] it was less than 100 nM; in experiment [4], 100 to 1000 nM; in experiment [5], less than 100 nM.
In the case of `COc1cc(N2CCN(CCS(C)(=O)=O)CC2)c(C)cc1Nc1nccc(-c2sc(C3CCOCC3)nc2-c2cccc(NS(=O)(=O)c3c(F)cccc3F)c2F)n1` [Example 177], the IC50 in experiment [1], in experiment [2], in experiment [3], in experiment [4] and in experiment [5] was less than 100 nM in each case.
`CC(C)c1nc(-c2cccc(NS(=O)(=O)c3ccc(C(C)(C)C)cc3)c2)c(-c2ccnc(Nc3ccc(N4CCOCC4)nc3)n2)s1` [Example 142]: the IC50 in experiment [1] was less than 100 nM; in experiment [2] it was greater than 1000 nM; in experiment [3] it was 100 to 1000 nM; in experiment [4], greater than 1000 nM; in experiment [5], greater than 1000 nM.
With `COc1cc(OCCN2CCOCC2)c(C)cc1Nc1nccc(-c2sc(C(C)C)nc2-c2cccc(NS(=O)(=O)c3c(F)cccc3F)c2F)n1` [Example 171], the IC50 is less than 100 nM in experiment [1]; less than 100 nM in experiment [2]; 100 to 1000 nM in experiment [3]; less than 100 nM in experiment [4]; 100 to 1000 nM in experiment [5].
Regarding `COc1cc(N2CCN(CCS(C)(=O)=O)CC2)c(C)cc1Nc1nccc(-c2sc(C(C)C)nc2-c2cc(NS(=O)(=O)c3c(F)cccc3F)ccc2F)n1` [Example 144], the IC50 is 100 to 1000 nM in experiment [1]; 100 to 1000 nM in experiment [2]; less than 100 nM in experiment [3]; 100 to 1000 nM in experiment [4]; 100 to 1000 nM in experiment [5].
Take `CC(C)c1nc(-c2cccc(NS(=O)(=O)c3c(F)cccc3F)c2)c(-c2ccnc(Nc3ccc(N4CCN(CCS(C)(=O)=O)CC4)cc3C(F)(F)F)n2)s1` [Example 176]: the IC50 in experiment [1] was less than 100 nM; in experiment [2], less than 100 nM; in experiment [3], greater than 1000 nM; in experiment [4], less than 100 nM; in experiment [5], greater than 1000 nM.
With `O=S(=O)(Nc1cccc(-c2nc(-c3ccc(F)c(Cl)c3)sc2-c2ccnc(Nc3ccc(N4CCOCC4)nc3)n2)c1F)c1c(F)cccc1F` [Example 143], the IC50 in experiment [1] was less than 100 nM; in experiment [2], 100 to 1000 nM; in experiment [3], greater than 1000 nM; in experiment [4], less than 100 nM; in experiment [5], greater than 1000 nM.
